Measurements as given in patent US11352350B2, “IRAK degraders and uses thereof” (Kymera Therapeutics, Inc., priority 2018, dated 2022).
Where two headings read alike, the source gives them in different places.

Tests used:
OCI-LY10 cells = assay: OCI-LY10 flow staining (Ki67, active Caspase-3, IRAK4); type: cell-based, human; conditions: FIG. 4
Method: OC1-LY10 cell line was cultured in IMDM medium supplemented with 20% FBS, B-ME and pen/strep. On Day 1, cells were plated at 200K per well in 96 well plates. Compounds were diluted to 1000× in DMSO, then further diluted to 100× in media, and added to cells at 4 concentrations over 4 different timepoints (24h, 48h, 72h and 96h). Timepoints were staggered so all cells were harvested and stained at the same time. Paclitaxel was added as a positive control and a DMSO control for each timepoint was also included. On day 5, plates were harvested and cells were fixed, permeabilized, and stored at −4 C until further processing. On day 8, the Ki67 plates were stained using KI-67-APC antibody (Biolegend, Cat #350514). The Caspase 3 plates were stained using the PE Active Caspase-3 Apoptosis Kit (BD Biosciences, Cat #550914) and the IRAK 4 plates were stained with Hu IRAK4 A^b Alexa 647 Clone: L29-525 antibody (BD, Cat #560315). Cells were resuspended in staining buffer and run on a Beckman Coulter CytoFlex 13 color Cytometer (Model #A00-1-1102, Serial #AS10086).

AIOLOS = AIOLOS (Homo sapiens (Human), UniProt Q96SW2+Q9UKT9); assay: AIOLOS degradation in OCI-LY10 (DC50); type: cell-based
Chain of AIOLOS (Q9UKT9 whole entry): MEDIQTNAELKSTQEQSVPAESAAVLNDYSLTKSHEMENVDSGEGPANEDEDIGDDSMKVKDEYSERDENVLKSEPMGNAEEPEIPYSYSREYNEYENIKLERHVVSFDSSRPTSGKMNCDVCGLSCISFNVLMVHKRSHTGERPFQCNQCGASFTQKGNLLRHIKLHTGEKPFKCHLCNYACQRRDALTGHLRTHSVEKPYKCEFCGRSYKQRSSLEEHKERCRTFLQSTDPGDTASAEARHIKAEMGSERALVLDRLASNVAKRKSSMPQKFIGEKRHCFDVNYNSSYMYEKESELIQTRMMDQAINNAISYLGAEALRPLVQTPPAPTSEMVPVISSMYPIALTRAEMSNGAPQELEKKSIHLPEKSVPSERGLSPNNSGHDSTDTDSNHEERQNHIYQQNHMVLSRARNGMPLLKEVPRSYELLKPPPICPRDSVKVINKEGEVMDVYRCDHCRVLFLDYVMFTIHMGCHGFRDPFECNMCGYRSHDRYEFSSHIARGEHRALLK
Chain of AIOLOS (Q96SW2 whole entry): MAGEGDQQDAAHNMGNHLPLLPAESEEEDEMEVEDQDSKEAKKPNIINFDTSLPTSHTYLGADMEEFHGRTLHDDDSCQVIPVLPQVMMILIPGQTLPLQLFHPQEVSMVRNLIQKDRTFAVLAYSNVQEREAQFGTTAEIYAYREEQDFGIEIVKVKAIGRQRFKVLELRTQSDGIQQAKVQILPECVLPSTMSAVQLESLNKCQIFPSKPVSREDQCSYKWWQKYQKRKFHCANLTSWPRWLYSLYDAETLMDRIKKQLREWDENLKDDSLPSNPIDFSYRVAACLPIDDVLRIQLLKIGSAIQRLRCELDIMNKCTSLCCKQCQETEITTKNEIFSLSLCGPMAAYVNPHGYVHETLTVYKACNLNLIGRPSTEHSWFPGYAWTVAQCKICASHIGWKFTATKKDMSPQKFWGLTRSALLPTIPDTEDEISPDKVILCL
Chain of AIOLOS (Q16531 whole entry partner): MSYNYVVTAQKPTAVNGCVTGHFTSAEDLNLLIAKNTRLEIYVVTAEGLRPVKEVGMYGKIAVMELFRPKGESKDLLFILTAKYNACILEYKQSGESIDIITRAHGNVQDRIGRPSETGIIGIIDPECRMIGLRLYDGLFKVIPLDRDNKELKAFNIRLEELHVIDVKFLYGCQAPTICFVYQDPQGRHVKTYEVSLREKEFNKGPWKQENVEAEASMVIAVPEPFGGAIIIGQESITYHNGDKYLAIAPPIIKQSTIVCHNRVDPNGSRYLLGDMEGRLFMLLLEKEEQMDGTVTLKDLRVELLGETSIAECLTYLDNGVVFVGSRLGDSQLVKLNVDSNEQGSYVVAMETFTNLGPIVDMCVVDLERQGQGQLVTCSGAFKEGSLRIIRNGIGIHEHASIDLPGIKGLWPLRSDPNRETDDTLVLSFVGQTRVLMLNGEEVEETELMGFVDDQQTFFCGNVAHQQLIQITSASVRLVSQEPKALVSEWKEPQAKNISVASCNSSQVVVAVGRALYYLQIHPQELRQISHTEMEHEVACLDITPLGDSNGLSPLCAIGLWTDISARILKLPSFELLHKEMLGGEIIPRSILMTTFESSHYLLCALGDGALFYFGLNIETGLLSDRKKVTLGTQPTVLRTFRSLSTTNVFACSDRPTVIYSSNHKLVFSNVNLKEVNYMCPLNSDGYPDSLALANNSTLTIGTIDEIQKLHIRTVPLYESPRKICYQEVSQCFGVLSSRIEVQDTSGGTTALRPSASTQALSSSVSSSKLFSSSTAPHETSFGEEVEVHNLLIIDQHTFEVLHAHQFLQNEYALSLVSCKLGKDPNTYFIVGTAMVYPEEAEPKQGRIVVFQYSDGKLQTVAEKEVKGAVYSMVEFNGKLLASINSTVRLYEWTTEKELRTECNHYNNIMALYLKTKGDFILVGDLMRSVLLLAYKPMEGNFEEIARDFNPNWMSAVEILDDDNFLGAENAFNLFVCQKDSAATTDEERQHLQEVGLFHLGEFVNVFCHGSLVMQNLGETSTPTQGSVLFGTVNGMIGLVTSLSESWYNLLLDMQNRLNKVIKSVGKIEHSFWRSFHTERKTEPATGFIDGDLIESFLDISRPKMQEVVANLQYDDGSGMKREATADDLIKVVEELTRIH

IRAK4 = IRAK4 (Homo sapiens (Human), UniProt Q9NWZ3); assay: IRAK4 degradation in OCI-LY10 (DC50); type: cell-based
Chain of IRAK4 (Q9NWZ3 whole entry): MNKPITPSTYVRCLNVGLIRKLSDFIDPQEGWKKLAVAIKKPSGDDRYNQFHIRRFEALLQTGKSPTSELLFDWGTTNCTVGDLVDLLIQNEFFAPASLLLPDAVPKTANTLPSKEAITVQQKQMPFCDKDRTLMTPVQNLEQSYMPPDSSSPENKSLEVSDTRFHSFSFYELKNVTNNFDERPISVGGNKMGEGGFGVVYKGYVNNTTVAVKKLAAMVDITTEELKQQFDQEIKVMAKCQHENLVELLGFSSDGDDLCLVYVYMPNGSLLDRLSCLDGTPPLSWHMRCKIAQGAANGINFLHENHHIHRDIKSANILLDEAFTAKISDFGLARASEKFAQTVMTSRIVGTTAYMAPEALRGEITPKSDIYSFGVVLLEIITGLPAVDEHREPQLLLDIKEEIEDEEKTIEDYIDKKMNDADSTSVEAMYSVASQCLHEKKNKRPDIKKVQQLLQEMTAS

IKAROS = IKAROS (Homo sapiens (Human), UniProt Q13422+Q96SW2); assay: IKAROS degradation in OCI-LY10 (DC50); type: cell-based
Chain of IKAROS (Q13422 whole entry): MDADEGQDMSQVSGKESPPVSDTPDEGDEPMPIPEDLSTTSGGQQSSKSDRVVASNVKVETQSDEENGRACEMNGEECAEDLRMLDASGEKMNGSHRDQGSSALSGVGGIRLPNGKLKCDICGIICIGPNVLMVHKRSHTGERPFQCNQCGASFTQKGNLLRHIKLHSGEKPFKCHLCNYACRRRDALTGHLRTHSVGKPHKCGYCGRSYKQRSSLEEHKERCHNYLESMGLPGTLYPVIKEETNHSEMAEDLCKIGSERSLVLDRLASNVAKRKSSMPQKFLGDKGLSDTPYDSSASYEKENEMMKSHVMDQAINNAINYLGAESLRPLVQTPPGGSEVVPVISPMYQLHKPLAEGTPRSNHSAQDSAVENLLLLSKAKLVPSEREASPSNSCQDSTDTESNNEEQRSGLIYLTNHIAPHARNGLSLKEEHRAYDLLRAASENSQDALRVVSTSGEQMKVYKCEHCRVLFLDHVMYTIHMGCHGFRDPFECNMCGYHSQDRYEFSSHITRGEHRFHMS
Chain of IKAROS (Q96SW2 whole entry): as the sequence (Q96SW2 whole entry) above
Chain of IKAROS (Q16531 whole entry partner): as the sequence (Q16531 whole entry partner) above

CN(CCCOCCCc1cccc2c1n(C)c(=O)n2C1CCC(=O)NC1=O)C[C@H]1CC[C@H](n2cc(NC(=O)c3coc(-c4ccnc(NCC5CC5)c4)n3)c(C(F)F)n2)CC1 (mixture of isomers) [I-30, 2-[2-(Cyclopropylmethylamino)-4-pyridyl]-N-[3-(difluoromethyl)-1-[4-[[3-[3-[1-(2,6-dioxo-3-piperidyl)-3-methyl-2-oxo-benzimidazol-4-yl]propoxy]propyl-methyl-amino]methyl]cyclohexyl]pyrazol-4-yl] oxazole-4-carboxamide] was tested, and the “induction of apoptosis in OCI-LY10 lymphoma line” value (OCI-LY10 cells) was “induces apoptosis”.
Work on CN(C[C@H]1CC[C@H](n2cc(NC(=O)c3coc(-c4ccnc(NCC5CC5)c4)n3)c(C(F)F)n2)CC1)C1CCN(Cc2cccc3c2n(C)c(=O)n3C2CCC(=O)NC2=O)CC1 (some centres unmarked) [I-75, 2-(2-((cyclopropylmethyl)amino)pyridin-4-yl)-N-(3-(difluoromethyl)-1-((1r,4r)-4-(((1-((1-(2,6-dioxopiperidin-3-yl)-3-methyl-2-oxo-2,3-dihydro-1H-benzo[d]imidazol-4-yl)methyl)piperidin-4-yl)(methyl)amino)methyl)cyclohexyl)-1H-pyrazol-4-yl)oxazole-4-carboxamide] yielded a DC50 (AIOLOS) of over 100 nM, a DC50 (IRAK4; read-out: IRAK4 Degradation in OCI-LY10, DC50) of 8 nM and a DC50 (IRAK4; read-out: IRAK4 OCI-LY10 DC50) of 8 nM. It also gave a DC50 (IKAROS) of over 100 nM.
